US20100016240A1, “FACILITATING CELLS AND DIABETES AND METHODS RELATED THERETO” (priority 2008, published 2010)

How the values were obtained:
[1] = system: p-preDC FC from NOD or NOR mice; assay: Chemokine and cytokine production by p-preDC FC after CpG-ODN stimulation (LINCOplex multiplex immunoassay); assay type: cell-based, mouse
Protocol: (§1) FIG. 2. Expression of activation markers on FC. (A) Sorted CD8^+/TCR^− FC (100,000) from NOD or NOR BM were cultured with medium or CpG-ODN for 18 h and stained with anti-MHC Class II I-A^d, CD86 or CD80 FITC labeled mAb, or isotype controls. The data shown are representative of three experiments. (B) Level of expression of activation markers on FC with or without CpG-ODN stimulation. The results are percent of CD8^+/TCR^− FC total from 3 separate experiments. (C) The morphology of FC was examined using Wright-Giemsa staining under optical microscopy after CpG-ODN stimulation. (D) P-preDC FC were cultured with CpG-ODN or medium only. Culture cell-free supernatants were collected after 18 h and MIP-1α/CCL3, MCP-1/CCL2, RANTES/CCL5, IP-10, IL-6, GM-CSF, and TNF-α were measured by LINCO plex multiplex immunoassay.
(§2) FC were cultured alone or with 1 μM TLR-9 ligand CpG-ODN 1668 (TCCATGACGTTCCGATGCT) (SEQ ID NO:1) (GIBCO BRL Custom Primers) (13) for 18 h. Supernatants were assayed for cytokines by Linco Diagnostic (St Charles, Mo.) using LINCOplex™ Multiplex immunoassay and cells were stained with anti-CD80, anti-CD86, or anti-MHC class II I-A^d (39-10-8) FITC mAb, with appropriately matched isotype controls.
We also examined chemokine and cytokine production by NOD and NOR p-preDC FC after CpG-ODN stimulation. In the presence of CpG-ODN, p-preDC FC produced more MIP-1α/CCL3, RANTES/CCL5, IP-10, IL-6, and TNF-α, compared to the level of those in absence of stimulation (FIG. 2D).

p-preDC FC = conditions: cited from earlier work
[2] = system: CD8+/TCR- FC from NOD or NOR BM; assay: Activation markers and morphology of sorted CD8+/TCR- FC cultured with CpG-ODN; assay type: cell-based, mouse
Protocol: as §1, §2
(§3) Wright-Giemsa staining was performed on cytospins of 100,000 FC after fixed in methanol. Slides were examined for dendritic morphology under optical microscopy.
We evaluated whether NOD FC resemble NOR FC in response to CpG-ODN stimulation.

NOD mice = conditions: cited from earlier work
[3] = system: HSC engraftment in B10 recipients; assay: Facilitation of HSC engraftment by FL-mobilized PB FC in allogeneic recipients (NOD to B10); assay type: in vivo, mouse
Protocol: (§4) FIG. 6. FL-mobilized PB FC facilitate HSC engraftment in allogeneic recipients. Recombinant human FL (expressed from CHO cells) (kindly provided by Amgen; Thousand Oaks, Calif.) was diluted in 0.1% mouse serum albumin (MSA; Sigma, St Louis, Mo.) at a concentration of 100 μg/ml. Donor NOD female mice were injected with 10 μg of FL once daily subcutaneously from day 0 to day 9. Control mice received saline injections. (A) Flow cytometric analysis of subpopulations in sorted FL-mobilized PB FC. (B) Sorted FL-PB FC were examined after Wright-Giemsa staining by optical microscopy. (C) Survival of recipients of HSC plus FL-mobilized PB FC in allogeneic model (NOD→B10). B10 recipients were conditioned with 950 cGy TBI and transplanted with […] from untreated NOD donors either alone or mixed with 30,000 purified FC from untreated NOD bone marrow, or from FL-mobilized PB FC from NOD mice. (D) and (E) Multilineage typing of representative B10 recipients of NOD HSC alone or recipients of NOD HSC plus FL-PB FC. Multilineage data are from PB 3 months after transplantation and analyzed based on the lymphoid and myeloid gate. Data shown are from one representative recipient. A total of 3 to 5 recipients were analyzed per group.
In the syngeneic model, recipients were conditioned with 950 cGy TBI from a Cesium source (Nordion, Ontario, ON, Canada) and transplanted with 500 HSC±30,000 FC populations by tail vein injection≧6 h after irradiation (14). In the allogeneic model, recipients conditioned with 950 cGy TBI were transplanted with 5,000 HSC±30,000 FL-PB FC (4).
Engraftment of donor cells was evaluated by PBL typing using 3-color flow cytometry, as previously described (15).
It was next evaluated whether FL-treatment can restore the facilitating function of NOD FC. […] To test function of FL-PB FC, HSC were sorted from BM of untreated NOD mice and FC from the PB of FL-treated NOD mice. Conditioned B10 recipients received 5,000 HSC plus 30,000 FL-PB FC. Control mice were transplanted with 5,000 HSC±30,000 FC from BM of untreated NOD mice. […] 13% and 20% of recipients of HSC alone (n=9) or HSC plus FC (n=8) from untreated NOD mice survived over 120 days, respectively (FIG. 6C).
Three-color flow cytometric analysis was performed.

PB p-preDC = conditions: administration of FL into human volunteers; cited from earlier work
[4] = system: FC in peripheral blood of NOD mice; assay: FL treatment of NOD donor mice: phenotype and morphology of FL-mobilized PB FC; assay type: in vivo, mouse
Protocol: as §4
Sorted FC (purity was ≧95%) were incubated with Fc receptor block (anti-CD16/CD32) before staining with lineage-specific markers: anti-CD11 FITC, CD11b APC, CD14 FITC, NK1.1 FITC, DX5 FITC, B220 PerCP, Gr-1 APC and CD19 APC, as previously described (4). Sorted FC were analyzed for p-preDC FC as B220^+/CD11c^+/CD11b^− using Cell Quest Software (Becton Dickinson).
as §3
To test whether FL-treatment can restore the function of NOD FC, the phenotype and function of FL-PB FCs were evaluated. NOD mice were treated with FL for 10 days. FC were sorted from PB, and sorted FC were stained with B220, CD11c, CD19, NK1.1DX5, and CD11b mAbs.

[5] = in response to CpG-ODN stimulation
[6] = with CpG-ODN compared to absence of stimulation, 18 h supernatant
[7] = treatment of NOD donors with FL
[8] = FL-PB FC versus untreated NOD BM FC
[9] = NOD mice, 10 μg FL once daily s.c. for 10 days, FC sorted from PB

CpG-ODN: TLR-9 ligand CpG-ODN 1668 (TCCATGACGTTCCGATGCT) (SEQ ID NO:1) (listed as DNA, chemistry not given here)
IL-6 amount, NOR p-preDC FC compared to NOD p-preDC FC ([1]; after CpG-ODN stimulation): 5 × | MIP-1α/CCL3 amount, NOR p-preDC FC compared to NOD p-preDC FC ([1]; after CpG-ODN stimulation): 2.1 × | RANTES/CCL5 amount, NOR p-preDC FC compared to NOD p-preDC FC ([1]; after CpG-ODN stimulation): 3.5 × | TNF-α amount, NOR p-preDC FC compared to NOD p-preDC FC ([1]; after CpG-ODN stimulation): 1.9 × | GM-CSF production by NOD p-preDC FC [1, 5]: do not | GM-CSF production by NOR p-preDC FC [1, 5]: more efficiently | IL-6 production by p-preDC FC [1, 6]: produced more | IP-10 production by p-preDC FC [1, 6]: produced more | MIP-1α/CCL3 production by p-preDC FC [1, 6]: produced more | RANTES/CCL5 production by p-preDC FC [1, 6]: produced more | TNF-α production by p-preDC FC [1, 6]: produced more | Interferon (IFN)-α and tumor necrosis factor (TNF)-α production by p-preDC FC (p-preDC FC; in response to TLR-9 ligand (CpG-ODN) stimulation): produce | CD4+/CD25- T cells differentiation into CD4+/CD25+/FoxP3+ Treg cells in vitro (p-preDC FC; p-preDC FC stimulated with CpG-ODN): promote | CD80 expression on NOD FC ([2]; NOD BM FC, 1 μM CpG-ODN, 18 h): markedly decreased | CD86 expression on NOD FC ([2]; NOD BM FC, 1 μM CpG-ODN, 18 h): up-regulated | Morphology of NOD FC ([2]; NOD FC after CpG treatment, Wright-Giemsa): did not exhibit a mature morphology | CD86 expression on NOR FC ([2]; NOR BM FC, 1 μM CpG-ODN, 18 h): up-regulated | Morphology / activation state of NOR FC ([2]; NOR FC after CpG-ODN stimulation, compared to NOD FC, Wright-Giemsa): more activated state

B1: FL: Recombinant human FL (expressed from CHO cells), provided by Amgen; human FLT3 ligand sequence shown in SEQ ID NO:2 (protein)
chain: MTVLAPAWSPTTYLLLLLLLSSGLSGTQDCSFQHSPISSDFAVKIRELSDYLLQDYPVTVASNLQDEELCGGLWRLVLAQRWMERLKTVAGSKMQGLLERVNTEIHFVTKCAFQPPPSCLRFVQTNISRLLQETSEQLVALKPWITRQNFSRCLELQCQPDSSTLPPPWSPRPLEATAPTAPQPPLLLLLLLPVGLLLLAAAWCLHWQRTRRRTPRPGEQVPPVPSPQDLLLVEH
modifications: Homo sapien
Diabetes progression (NOD mice; FL treatment of NOD mice): significant delay | Production of defective mature myeloid DC, plasmacytoid DC in spleen and pancreatic lymph nodes (NOD mice; FL treatment of NOD mice): restored production | Treg in pancreatic lymph nodes (NOD mice; FL treatment of NOD mice): significantly increased | Insulitis and progression to diabetes (NOD mice; prediabetic NOD mice treated with FL): significantly decreased | Recipients survived 120 days ([3]; B10 recipients (950 cGy TBI) of 5,000 untreated NOD HSC plus 30,000 PB FC from FL-treated NOD mice, n=8): 63% | Engraftment of HSC ([3]; HSC plus PB FC from FL-treated NOD mice in B10 recipients): significantly enhanced | Multilineage donor chimerism ([3]; recipients of HSC plus FL-PB FC, followed >4 months, three-color flow cytometry): showed donor chimerism for multilineages | Facilitating function of NOD FC in vivo [3, 7]: restored | Number of PB p-preDC in humans (PB p-preDC): increase | Percentage of CD19+ FC [4, 8]: remained at same levels | Percentage of p-preDC FC [4, 8]: remained at same levels | B220-/CD11c+/CD11b+ DC subpopulation in FL-PB FC [4, 9]: significant increase | NK1.1+DX5+ subpopulation in FL-PB FC [4, 9]: significant increase | Total number of FCs in peripheral blood [4, 7]: expanded | Activation state (dendritic morphology) of FL mobilized NOD PB FC ([4]; versus untreated NOD BM FC, Wright-Giemsa): more activated state
